Results reported in PubChem BioAssay AID179 (DTP/NCI, 2004).
Several values for one entry are separate records, joined by “and”; a condition that tells them apart may be missing. Equal entries are not always repeated. Activity calls are given as the source filed them.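 The calls were made as follows: active = compounds giving half or more protection of infected cells from virus-caused growth loss, again on retest; inactive = the rest.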

System: CEM cells HIV-1 protection, formazan growth assay
Experiment: NCI AIDS Antiviral Assay
Conditions: for IC50: measured here: growth of uninfected CEM cells
In short: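 Soluble formazan readout of cell growth; CEM cells ± HIV-1; 5 drug concs. ≥50% protection → retest; ≥50% again = moderately active; reproducible 100% = confirmed active.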

With CC(=O)OC(C)(C)/C=C/C(=O)[C@](C)(O)[C@H]1[C@H](O)C[C@@]2(C)[C@@H]3CC=C4[C@@H](C[C@H](O)C(=O)C4(C)C)[C@]3(CO)C(=O)C[C@]12C as the molecule, how does the EC50 read?
The EC50 was > 4.37 µM.

What about the IC50 of the same molecule?
Its IC50 is 0.129 µM.

Which results are given for CN1CCc2sccc2C(c2ccccc2)O1 (centres undefined)?
EC50: > 708 µM; IC50: 275 µM

Which results are given for Clc1ccccc1-c1nc2ccc(C34CC5CC(CC(C5)C3)C4)cc2[nH]1?
EC50: > 200 µM; IC50: 162 µM

With COC1=CC(=O)C2C=C3C(CO)=CCC(O)C3(C)CC2C1=O (centres undefined) as the molecule, how does the EC50 read?
Its EC50 is > 200 µM.

And the IC50?
The IC50 was 3.8 µM.

For C#CC(O)c1ccc(OC)c(OC)c1 (centres undefined), which outcome is on record?
Its outcome is “inactive”.

Which EC50 does the source give for CCCN=c1ssc(=O)n1CCC here?
Its EC50 is > 200 µM.

And the IC50?
Its IC50 is 11.2 µM.

What does the source list for N#Cc1cccc(N2C(=O)c3c(c(-c4ccccc4)c(-c4ccc(Sc5ccc(-c6c(-c7ccccc7)c7c(c(-c8ccccc8)c6-c6ccccc6)C(=O)N(c6cccc(C#N)c6)C7=O)cc5)cc4)c(-c4ccccc4)c3-c3ccccc3)C2=O)c1?
EC50: > 12 µM; IC50: > 12 µM

CCN(Cc1cccc(S(=O)(=O)[O-])c1)c1ccc(C(=C2C=CC(=[N+](CC)Cc3cccc(S(=O)(=O)O)c3)C=C2)c2ccccc2)cc1 was tested. Which EC50 did it give?
Its EC50 is 148 µM.

What about the IC50 of the same molecule?
Its IC50 is 186 µM.

For CCCC(Sc1ccccc1)P(=O)(c1ccccc1)c1ccccc1 (centres undefined), which outcome is on record?
The outcome was “inactive”.

With O=C1NC(=O)C(=Cc2ccc(-c3ccccc3)cc2)C(=O)N1 as the molecule, how does the EC50 read?
Its EC50 is > 24.5 µM.

What about the IC50 of the same molecule?
The IC50 was > 24.5 µM.

For O=C1N[C@H]2CS(=O)(=O)C[C@H]2N1, which EC50 is on record?
Its EC50 is > 200 µM.

What about the IC50 of the same molecule?
Its IC50 is > 200 µM.

How did the outcome turn out when CCCCCCCCCOC(=S)NC was run?
Its outcome is “inactive”.

COc1ccc(S(=O)(=O)NNS(C)(=O)=O)cc1OC was tested. Which EC50 did it give?
The EC50 was > 40.7 µM.

And the IC50?
Its IC50 is > 40.7 µM.

With CCCCc1ccc(OC2OC(COC(C)=O)C(OC(C)=O)C(OC(C)=O)C2OC(C)=O)cc1 (centres undefined) as the molecule, how does the EC50 read?
The EC50 was > 93.3 µM.

What about the IC50 of the same molecule?
Its IC50 is 49 µM and > 93.3 µM.

With COC(=O)N/N=c1\cc(C(=O)Nc2ccc(C)c(C)c2)oc2cc(O)ccc12 as the molecule, how does the EC50 read?
The EC50 was > 661 µM.

And the IC50?
The IC50 was 575 µM.

How did the EC50 turn out when Cc1cn(C2CC(ON3C(=O)c4ccccc4C3=O)C(CO)O2)c(=O)[nH]c1=O (centres undefined) was run?
The EC50 was 26.9 µM and > 200 µM.

What about the IC50 of the same molecule?
The IC50 was > 200 µM.

Which results are given for COc1ccc(N2C(=O)C3c4[nH]c5ccc(OCc6ccccc6)cc5c4C4CCC(c5ccccc5)CC4C3C2=O)cc1 (centres undefined)?
EC50: > 100 µM; IC50: > 100 µM

For CCN(CC)c1c(N(CC)CC)c(=O)c1=O, which EC50 is on record?
The EC50 was > 200 µM.

And the IC50?
The IC50 was 6.03 µM.

For COc1ccc(C(OC(=O)[C@H](O[Si](C)(C)C(C)(C)C)[C@@H](NC(=O)c2ccccc2)c2ccccc2)c2ccc(OC)cc2)cc1, which EC50 is on record?
Its EC50 is > 200 µM.

What about the IC50 of the same molecule?
The IC50 was 95.5 µM.

With N#CNC(=NCc1ccccc1)NCc1ccccc1 as the molecule, how does the EC50 read?
Its EC50 is 200 µM.

What about the IC50 of the same molecule?
The IC50 was 339 µM.

For CC(=O)C(CN1CCCCC1)C(c1ccccc1)c1c(O)c2ccccc2oc1=O (centres undefined), which EC50 is on record?
Its EC50 is > 120 µM.

What about the IC50 of the same molecule?
The IC50 was 117 µM.

Which EC50 does the source give for CCCCCCCCCCCCCCCCCCCCC(C(=O)OCC)S(=O)(=O)O (centres undefined) here?
Its EC50 is > 100 µM.

What about the IC50 of the same molecule?
Its IC50 is 19.5 µM.

How did the EC50 turn out when CC(C)=CCc1c(O)c(CC2=C(O)C(C)=C(O)C(CC=C(C)C)(C(=O)C(C)C)C2=O)c(O)c(C(=O)C(C)C)c1O (centres undefined) was run?
Its EC50 is > 100 µM.

What about the IC50 of the same molecule?
The IC50 was 4.57 µM.

Which EC50 does the source give for Nc1nc(C[P+](c2ccccc2)(c2ccccc2)c2ccccc2)c(CCCCc2ccccc2)c(=O)[nH]1 here?
Its EC50 is > 200 µM.

And the IC50?
The IC50 was 33.1 µM.

Which EC50 does the source give for CC1S(=O)(=O)OCCOS1(=O)=O here?
The EC50 was > 1150 µM.

And the IC50?
The IC50 was 123 µM.

How did the EC50 turn out when CC1=N/C(=C\c2ccc(Cl)cc2)C(=O)O1 was run?
Its EC50 is > 32.4 µM.

What about the IC50 of the same molecule?
Its IC50 is > 32.4 µM.

For Cc1cc2c(c(C(=O)NCCC(=O)O)c1)Oc1c(cc(C)cc1C(=O)NCCC(=O)O)S2, which EC50 is on record?
Its EC50 is > 200 µM.

What about the IC50 of the same molecule?
The IC50 was > 200 µM.

For CC(=O)OCC1CC(n2cc(C)c(=O)[nH]c2=O)=NO1 (centres undefined), which EC50 is on record?
The EC50 was > 200 µM.

And the IC50?
The IC50 was > 200 µM.

C=CC1(C)OC2(CCN(C(=O)OCC)CC2)OC1C (centres undefined) was tested. Which EC50 did it give?
The EC50 was > 200 µM.

What about the IC50 of the same molecule?
Its IC50 is 123 µM.

Which results are given for NNC(=S)N/N=C(/C(=O)Nc1cc(Cl)ccc1Cl)C1C(=O)Nc2ccccc2S1=O (centres undefined)?
EC50: > 513 µM; IC50: 257 µM

With COC(=O)C(CCCN1C(=O)c2ccccc2C1=O)C(=O)OC as the molecule, how does the outcome read?
The outcome was “inactive”.

How did the EC50 turn out when CCOC(=O)C(CC(C)C)NC(=O)c1cc(SC#N)c(C)c2c1Nc1c(c(C)c3oc(=O)c(C)nc3c1C(=O)NC(CC(C)C)C(=O)OCC)O2 (centres undefined) was run?
The EC50 was > 5.01 µM.

And the IC50?
The IC50 was > 5.01 µM.

With CCCCCCCCCCCCCCCCCCSCC12c3ccccc3C(c3ccccc31)C(COS(=O)(=O)O)C2COS(=O)(=O)O (centres undefined) as the molecule, how does the EC50 read?
The EC50 was > 100 µM.

What about the IC50 of the same molecule?
Its IC50 is 64.6 µM.

How did the outcome turn out when C/C(=N\NC(=O)/C(C#N)=C\c1ccc(N(CCC#N)CCC#N)cc1)c1ccccc1 was run?
The outcome was “inactive”.

Which results are given for CC(Oc1ccc(OCC2CCCCC2)cc1)C(N)=O (centres undefined)?
EC50: > 36.3 µM; IC50: 15.1 µM

Which results are given for O=C(O)c1cc(O)ccc1O?
EC50: > 200 µM; IC50: > 200 µM

With C/C(CC(=O)Nc1cc(Cl)c(Cl)cc1Cl)=N\NC(N)=O as the molecule, how does the EC50 read?
The EC50 was > 21.4 µM.

What about the IC50 of the same molecule?
The IC50 was 2.75 µM.

Which EC50 does the source give for C=CCNc1nc(C#N)c(N)s1 here?
The EC50 was > 200 µM.

What about the IC50 of the same molecule?
Its IC50 is > 200 µM.

[N-]=[N+]=Nc1cc(=O)[nH]nc1-c1ccccc1 was tested. Which EC50 did it give?
The EC50 was > 200 µM.

And the IC50?
The IC50 was > 200 µM.

What does the source list for CC(=N/NC(=S)N1CCCCC1)/C(=N\NC(=S)N1CCCCC1)c1ccccc1?
EC50: > 200 µM; IC50: 3.55 µM

How did the EC50 turn out when S=C(NNC1=NCCCCN1)Nc1ccc(Cl)cc1 was run?
Its EC50 is > 200 µM.

And the IC50?
Its IC50 is 18.6 µM.

How did the EC50 turn out when COc1ccc(Nc2nc3cc(C(F)(F)F)ccc3nc2-c2ccccc2)cc1OC was run?
Its EC50 is > 30.9 µM.

And the IC50?
The IC50 was > 30.9 µM.

With CC(=O)NC1=C(C)C(=O)c2c(nc3n2CCC3OC(=O)c2ccccc2)C1=N (centres undefined) as the molecule, how does the EC50 read?
The EC50 was > 200 µM.

What about the IC50 of the same molecule?
Its IC50 is 0.912 µM.

Which EC50 does the source give for COc1cccc(/C=C/c2nc3ccccc3nc2/C=C/c2cccc(OC)c2OC)c1OC here?
Its EC50 is > 200 µM.

What about the IC50 of the same molecule?
Its IC50 is 55 µM.

With Nc1ccc(-c2nc3sc(-c4ccc(N)cc4)nc3s2)cc1 as the molecule, how does the EC50 read?
The EC50 was > 16.2 µM.

And the IC50?
The IC50 was > 16.2 µM.

What does the source list for O=C(c1cccs1)N1CCCN(C(=O)c2cccs2)C1=S?
EC50: > 200 µM; IC50: > 200 µM

Which results are given for CN/N=C(/CC(=O)c1sc(-n2nc(-c3ccccc3)cc2-c2ccccc2)nc1C)C(=O)Nc1ccc(Cl)c(Cl)c1?
EC50: > 112 µM; IC50: > 112 µM

For O/N=C1/CCCCCC1NO (centres undefined), which EC50 is on record?
Its EC50 is > 200 µM.

And the IC50?
The IC50 was > 200 µM.

How did the EC50 turn out when CC(=O)OCc1ccc(-c2nc(C#N)c(N)o2)o1 was run?
Its EC50 is > 200 µM.

What about the IC50 of the same molecule?
Its IC50 is > 200 µM.

CC1=NC(C)(COC(=O)C2(C)NC(C)(CO)CO2)COC1=O (centres undefined) was tested. Which EC50 did it give?
The EC50 was > 200 µM.

What about the IC50 of the same molecule?
Its IC50 is > 200 µM.

How did the EC50 turn out when O=c1[nH]c2cc(Cl)ccc2c2ccc(Cl)cc12 was run?
Its EC50 is > 200 µM.

What about the IC50 of the same molecule?
The IC50 was > 200 µM.

For O=C1Cc2nc(CO)c(CO)c(CO)c2CO1, which EC50 is on record?
Its EC50 is > 1050 µM.

What about the IC50 of the same molecule?
Its IC50 is > 1050 µM.

O=C(N/C(=C\c1cccc([N+](=O)[O-])c1)c1nc2ccc([N+](=O)[O-])cc2[nH]1)c1ccccc1 was tested. Which outcome did it give?
Its outcome is “inactive”.

How did the outcome turn out when COC(=O)C1=C(C(=O)OC)C2C=CC1C1C(Cl)=C(Cl)C21 (centres undefined) was run?
Its outcome is “inactive”.

Which EC50 does the source give for O=C(CNc1ccc([N+](=O)[O-])cc1)Nn1c(-c2ccccc2)nc2ccccc2c1=O here?
Its EC50 is > 200 µM.

What about the IC50 of the same molecule?
Its IC50 is 4.17 µM.

How did the EC50 turn out when O=c1[nH]nc(NNc2ccccc2)c2nnn(C3CCCCC3)c12 was run?
The EC50 was > 200 µM.

And the IC50?
Its IC50 is 12.6 µM.

CCOC(=O)C1=C(Nc2ccc(Br)cc2)OCC1=O was tested. Which outcome did it give?
The outcome was “inactive”.

Which results are given for Cc1cc(NC(=O)Nc2ccc(N=Nc3cc(S(=O)(=O)[O-])c4cccc(S(=O)(=O)[O-])c4c3)c(C)c2)ccc1N=Nc1cc(S(=O)(=O)[O-])c2cccc(S(=O)(=O)[O-])c2c1.[Ga]?
EC50: > 75.9 µM; IC50: 13.5 µM

COC(=O)c1nc(N)[nH]c(=O)c1-c1ccc(Cl)cc1 was tested. Which EC50 did it give?
The EC50 was 251 µM.

What about the IC50 of the same molecule?
Its IC50 is 891 µM.

Which EC50 does the source give for C=CCC12CC(OC)C(O)CC1(O)OC(c1cc(OC)c(OC)c(OC)c1)C2C (centres undefined) here?
The EC50 was > 200 µM.

And the IC50?
The IC50 was > 200 µM.

For CCOC(=O)P(=O)(O)c1ccc(N(C)Cc2ccccc2)cc1, which EC50 is on record?
The EC50 was > 200 µM.

What about the IC50 of the same molecule?
The IC50 was > 200 µM.
